Measurements from US8716242B2, “β-hairpin peptidomimetics” (priority 2009, dated 2014).
Numbered stars: 1 amine (or outer) side, 2 acyl side, 3 side chain; on linkers, the order of the positions; unused ones are H or OH. Bridge positions count the residues as written; N and C are the ends. Square brackets hold non-standard residues; d marks the D form. Side chains are listed from the residue outwards. Peptide text beside a SMILES is read from it. * marks the point of attachment. γGlu = O=C(O)[C@H](CCC(=O)[*:2])N[*:1]; Lauroyl = CCCCCCCCCCCC(=O)*; Dab = NCC[C@H](N)C(=O)O

What was measured:
[1] = Plasma stability in mouse plasma; assay type: in vitro ADME; settings: mouse plasma, 37° C.
Method in brief: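 Peptides (1 mM DMSO/H2O stock) were spiked into human or mouse plasma in triplicate and incubated at 37 °C, sampling from 0 to 1440 min. Samples were quenched in formic acid/acetonitrile and analysed by LC/MS MRM. Remaining percent of t=0 was calculated and T1/2 derived by trend fitting.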

in vivo = assay: in vivo; parameters: species or system male CD-1 mice; settings: for AUC0-∞ dcor. / Cmax dcor.: mouse
Experimental: 2.7. Pharmacokinetic Study (PK)
Pharmacokinetic study after intravenous (i.v.) and subcutaneous (s.c.) administration was performed for the compounds of Ex. 17, Ex. 20, Ex. 25, Ex. 26, Ex. 28, and Ex. 29. […] The compounds of Ex. 17, Ex. 25, Ex. 26, Ex. 28, and Ex. 29 were administered i.v. and s.c. as a cassette whereas for the compound of Ex. 20a single i.v. and s.c. administration was accomplished.
30 grams (±20%) male CD-1 mice obtained from Janvier, France, were used in the study testing the cassette compounds. The vehicle, phosphate buffered saline containing 5% DMSO, was added to give a final concentration of 0.5 mg/mL of the compounds (i.v. route and s.c. route). The volume was 2 mL/kg i.v. and 10 mL/kg s.c. and the cassette compounds were injected to give a final intravenous dose of 1 mg/kg and an subcutaneous dose of 5 mg/kg. Approximately 500 μL of blood were removed from the opened heart at predetermined time intervals (5, 15, 30 min and 1, 2, 4, 8 and 12 hours for the i.v. study and 5, 15, 30 min and 1, 2, 4, 8, 12 and 24 hours for the s.c. study) and added to heparinized tubes. Plasma was removed from pelleted cells upon centrifugation and frozen at −80° C. prior to HPLC-MS analysis. For the compound of Ex. 20 30 grams (±20%) male CD-1 mice obtained from Charles River Laboratories Deutschland GmbH were used. The vehicle, phosphate buffered saline, was added to give a final concentration of 0.2 mg/mL of the compound (i.v. route) and 1 mg/mL (s.c. route). The volume was 5 mL/kg i.v. and s.c. and the compound was injected to give a final intravenous dose of 1 mg/kg and an subcutaneous dose of 5 mg/kg. Approximately 300-400 μL of blood was removed under light isoflurane anesthesia by cardiac puncture at predetermined time intervals (5, 15, 30 min and 1, 2, 3, 4, 6, 12 hours for the i.v. study and 15, min and 1, 2, 4, 6, 8, 12 and 24 hours for the s.c. study) and added to heparinized tubes. Plasma was removed from pelleted cells upon centrifugation and frozen at −80° C. prior to HPLC-MS analysis.
Preparation of the Plasma Calibration Samples
“Blank” mouse plasma from untreated animals was used. Aliquots of plasma of 0.2 mL each were spiked with 50 ng of propranolol (Internal Standard, IS), (sample preparation by solid phase extraction on OASIS® HLB cartridges [Waters]) and with known amounts of Ex. 20 in order to obtain 9 plasma calibration samples in the range 10-5000 nM. The OASIS® HLB cartridges were conditioned with 1 mL of methanol and then with 1 mL of 1% NH3 in water. Samples were then diluted with 700 μL of 1% NH3 in water and loaded. The plate was washed with 1 mL of methanol/1% NH3 in water 5/95 (v/v). Elution was performed using 1 mL of 0.1% TFA in methanol.
The plate containing eluates was introduced into the concentrator system and taken to dryness. The residues were dissolved in 100 μL of formic acid 0.1%/acetonitrile, 95/5 (v/v) and analysed in the HPLC/MS on a reverse phase analytical column (Jupiter C18, 50×2.0 mm, 5 μm, Phenomenex), using gradient elution (mobile phases A: 0.1% formic acid in water, B: acetonitrile; from 5% B to 100% B in 2 min.).
Preparation of Plasma Samples
Samples coming from animal treatments were pooled in order to obtain an appropriate volume for the extraction. If the total volume obtained was less than 0.2 mL the appropriate amount of “blank” mouse plasma was added in order to keep the matrix identical to the calibration curve. Samples were than spiked with IS and processed as described for the calibration curve.
Pharmacokinetic Evaluation
In order to perform PK analysis pooled plasma data (n=3 mice) was used. PK parameters were calculated by WinNonLin™ software version 5.2.1 (Pharsight—A Certara™ Company, Mountain View, Calif. 94041 USA) using non-compartmental analysis with a linear up/log down trapezoidal calculation method. For the terminal elimination phase at least 3 time points and a correlation coefficient greater than 0.85 was used. […]

For `CCCCCCCCCCCC(=O)N[C@@H](CCC(=O)NCCCC[C@@H]1NC(=O)[C@H](Cc2ccc(O)cc2)NC(=O)[C@@H]2CSSC[C@H](NC(=O)[C@H](C)NC(=O)[C@H](Cc3c[nH]cn3)NC(=O)[C@H](Cc3ccc(O)cc3)NC(=O)[C@@H]3CCCN3C(=O)[C@H]3CCCN3C(=O)[C@H](CCCCN)NC1=O)C(=O)N[C@@H](CCCNC(=N)N)C(=O)N[C@@H](C)C(=O)N1CCC[C@@H]1C(=O)N[C@@H](CCN)C(=O)N[C@@H](CCCNC(=N)N)C(=O)N[C@@H](Cc1ccc(O)cc1)C(=O)N2)C(=O)O` [Ex. 26] (cyclo(YHACRA[dP][Dab]RYCYK([γGlu-Lauroyl])K[dP]P); disulfide 4-11), the remaining at 24 h, 10 μM ([1]; 1440 min, read-out: mouse pl. cpd left at 1440 min) was 65%, the “mouse pl. T1/2” value ([1]; up to 1440 min) was 24 h and the bioavailability (in vivo; male, CD-1, mouse) was 142%. For the same molecule, the AUC(0-inf) (in vivo; male, CD-1, mouse, iv, 1 mg/kg) was 3400 ng·h/mL, the Cmax (in vivo; male, CD-1, mouse, iv, 1 mg/kg) was 3470 ng/mL and the Tmax (in vivo; male, CD-1, mouse, iv, 1 mg/kg) was 0.1 h. It also gave a half-life (in vivo; male, CD-1, mouse, iv, 1 mg/kg) of 1.3 h, a level at 0.083 h (in vivo; male, CD-1, mouse, iv, 1 mg/kg) of 3470 ng/mL and a level at 0.25 h (in vivo; male, CD-1, mouse, iv, 1 mg/kg) of 2530 ng/mL. The level at 0.5 h (in vivo; male, CD-1, mouse, iv, 1 mg/kg) was 1980 ng/mL, the level at 1 h (in vivo; male, CD-1, mouse, iv, 1 mg/kg) was 1540 ng/mL and the level at 2 h (in vivo; male, CD-1, mouse, iv, 1 mg/kg) was 219 ng/mL. For the same molecule, the level at 4 h (in vivo; male, CD-1, mouse, iv, 1 mg/kg) was 98 ng/mL, the level at 8 h (in vivo; male, CD-1, mouse, iv, 1 mg/kg) was 10 ng/mL and the AUC(0-inf) (in vivo; male, CD-1, mouse, sc, 5 mg/kg) was 24000 ng·h/mL. For the same molecule, the Cmax (in vivo; male, CD-1, mouse, sc, 5 mg/kg) was 3990 ng/mL, the Tmax (in vivo; male, CD-1, mouse, sc, 5 mg/kg) was 2 h and the half-life (in vivo; male, CD-1, mouse, sc, 5 mg/kg) was 2.9 h. For the same molecule, the level at 0.25 h (in vivo; male, CD-1, mouse, sc, 5 mg/kg) was 221 ng/mL, the level at 0.5 h (in vivo; male, CD-1, mouse, sc, 5 mg/kg) was 779 ng/mL and the level at 1 h (in vivo; male, CD-1, mouse, sc, 5 mg/kg) was 1750 ng/mL. It also gave a level at 2 h (in vivo; male, CD-1, mouse, sc, 5 mg/kg) of 3990 ng/mL, a level at 4 h (in vivo; male, CD-1, mouse, sc, 5 mg/kg) of 2530 ng/mL and a level at 8 h (in vivo; male, CD-1, mouse, sc, 5 mg/kg) of 1600 ng/mL. For the same molecule, the level at 12 h (in vivo; male, CD-1, mouse, sc, 5 mg/kg) was 524 ng/mL, the level at 24 h (in vivo; male, CD-1, mouse, sc, 5 mg/kg) was 23 ng/mL and the “AUC0-∞ dcor.” value (in vivo; iv, 1 mg/kg) was 3395.6 kg·ng·h/mg/mL. The Cmax dcor. (in vivo; iv, 1 mg/kg) was 3467.0 kg·ng/mg/mL, the “AUC0-∞ dcor.” value (in vivo; sc, 5 mg/kg) was 4806.6 kg·ng·h/mg/mL and the Cmax dcor. (in vivo; sc, 5 mg/kg) was 797.4 kg·ng/mg/mL.
